Legend:
[1] = morphine 30 mg/kg orally twice per day
[2] = system: TH (tyrosine hydroxylase); assay: CNS phosphoprotein profile, TH; assay type: in vivo; details: mice nucleus accumbens; Example 1 3 mg/kg at 30 or 60 minutes; haloperidol 2 mg/kg
Experimental: A comprehensive molecular phosphorylation study is also carried out to examine the central nervous system (CNS) profile of the compound of Example 1. The extent of protein phosphorylation for selected key central nervous system proteins is measured in mice nucleus accumbens.
Mice were killed 30 minutes to 2 hours post-injection by focused microwave cranial irradiation, which preserves brain phosphoprotein as it exists at the time of death. Nucleus accumbens was then dissected from each mouse brain, sliced and frozen in liquid nitrogen. Samples were further prepared for phosphoprotein analysis via SDS-PAGE electrophoresis followed by phosphoprotein-specific immunoblotting, as described in Zhu H, et al., Brain Res. 2010 Jun. 25; 1342:11-23. Phosphorylation at each site was quantified, normalized to total levels of the protein (non-phosphorylated), and expressed as percent of the level of phosphorylation in vehicle-treated control mice.

Structure (SMILES)	tolerance and dependence [1]	increase in TH phosphorylation at Ser40 [2]
CN1CC[C@]23c4c5ccc(O)c4O[C@H]2[C@@H](O)C=C[C@H]3[C@H]1C5 [Morphine]	clear signs of tolerance and dependence	–
O=C(CCCN1CCC(O)(c2ccc(Cl)cc2)CC1)c1ccc(F)cc1 [haloperidol]	–	greater than 400%
Cc1nc2n(c(=O)c1CCN1CCC(c3noc4cc(F)ccc34)CC1)CCCC2 [risperidone]	–	greater than 500%
